pIC50: −log10 of the molar value.
Legend:
[1] = test system: osteoblast-line cells (mouse MC3T3-E 1 and human TE-85); experiment: Osteoblast cell proliferation (3H-thymidine incorporation); assay type: cell-based; details: MC3T3-E1, control is 100%, cell line (MC3T3-E 1 or TE-85) not stated per value, read-out: Osteoblast Prolif (% XControl@ 0.01 uM)
From the text: Compounds of the present invention have utility to treat bone wasting diseases including osteoporosis in animals including humans through enhancement of bone calcification as well as inhibition of bone degeneration or resorption. The compounds of the present invention have been evaluated as inhibitors of human prostatic tyrosyl phosphatase, an isoenzyme similar to a tyrosyl phosphatase present in human osteoblasts. Inhibitors of the enzyme are involved with the stimulation of osteoblast cell proliferation in cell culture which is predictive of enhancement of bone mass and bone formation in vivo. Inhibitors of osteoclastic acid phosphatase prevent the resorptive action of osteoclasts and thereby prevent the degradation of bone mass associated with osteoporosis. Table 1 reports the results of the compounds of the present invention in inhibiting human prostatic tyrosyl phosphatase and osteoclastic acid phosphatase. […] Their ability to stimulate osteoblast cell proliferation at 0.01 uM concentration is presented also in Table 1. […] However, such compounds may be useful as prodrugs to the acid (R^1 and R^2 equal H) and as intermediates useful in making the corresponding acid.
The action of select compounds to stimulate osteoblast growth can be measured in culture by estimating the rate of DNA synthesis by the rate of ^3 H-thymidine incorporation into DNA. Only cells undergoing mitosis will synthesize new DNA and thus only these cells will incorporate the radiolabeled DNA-specific thymidine. The stimulation of the proliferation and differentiation of bone-forming cells, osteoblasts, is a prerequisite for an increase in bone formation and bone mass. The ability of agents to increase osteoblast proliferation and differentiation can be predicted by their action on cultured osteoblast-line cells in vitro. In this test, mouse (MC3T3-E 1) cloned by Sudo et al. Koriyama, Japan) and human (TE-85) osteoblast-line cells (American Type Tissue Culture Collection, #CRL 1543, Rockville, Md.) were cultured/n vitro and the effect of various agents was tested on osteoblast cell proliferation. Osteoblasts were isolated and cultured according to literature methods. [J. E. Puzas, R. H. Drivdahl, A. G. Howard, and D. J. Baylink, Proc. Soc. Exper. Biol. Med., 166 113-122, […]]. Cells were harvested from large culture flasks, where they were allowed to grow to near confluency, using trypsin. The cells were plated into 96 well culture plates, 1600 cells in 100 μL per well in Dulbecco's Modified Eagle's Medium with 25 mM HEPES buffer, L-glutamine (584 mg/L); D-glucose (4.5 g/L) supplemented with fetal bovine sera (10%); penicillin (100 units/mL)and streptomycin (100 mcg/mL); sodium pyruvate (10 μM final concentration). The cells were allowed to plate overnight in DMEM containing 10% fetal bovine sera at 37° C., in an atmosphere of 5% CO2 /95% air. Following their placement into 96 well culture plates all the osteoblast-line cells, either the MC3T3-E 1 or the TE-85 cell lines, were allowed an additional 24 hours preincubation period in media containing only 0.1% fetal bovine sera. The next day the test compounds were added and screened at concentrations ranging from 10^-4 to 10^-8 M depending on the study. Twenty hours later, a 20 μL aliquot of media containing 0.4 μCi of ^3 H-thymidine was added to each culture well. The cells were then incubated an additional 4 hours. The incubation was terminated by aspirating the media and washing with HBSS (Hank's Balanced Salt Solution). The cells were then treated with 100 μL of 0.5% trypsin and […] of EDTA for 30 minutes at room temperature. The cells were then aspirated onto a glass fiber filter and washed with water. The radioactivity on the filters was quantified by liquid scintillation spectroscopy. The rate of ^3 H-thymidine incorporation into DNA is then utilized as an index of cell proliferation. The results are shown in Table 1 expressed as % times control where control is 100%.

[2] = target: T1, human prostatic tyrosyl phosphatase (Homo sapiens, UniProt P15309); experiment: biochemical; details: 30 minutes at 37° C., pH 5.5, (14C)-phosphotyrosine substrate; read-out: Tyr-Pase IC50
T1 construct: purchased Sigma Chemical Co
T1 sequence (P15309 33-386): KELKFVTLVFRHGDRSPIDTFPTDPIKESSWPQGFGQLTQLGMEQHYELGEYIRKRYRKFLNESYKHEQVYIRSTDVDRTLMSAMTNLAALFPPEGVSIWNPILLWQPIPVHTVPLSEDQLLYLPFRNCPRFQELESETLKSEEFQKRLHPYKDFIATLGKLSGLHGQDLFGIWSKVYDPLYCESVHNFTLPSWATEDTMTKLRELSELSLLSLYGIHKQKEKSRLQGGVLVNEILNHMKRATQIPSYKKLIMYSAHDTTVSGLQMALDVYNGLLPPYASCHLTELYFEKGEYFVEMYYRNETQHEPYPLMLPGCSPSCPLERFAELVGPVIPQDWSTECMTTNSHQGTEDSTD
Experimental: Inhibition of the activity of tyrosyl protein phosphatase was evaluated by incubating an aliquot of purified human prostatic tyrosyl protein acid phosphatase (Sigma Chemical Co.) with radiolabeled phosphotyrosine. The radiolabeled substrate, (^14 C)-phosphotyrosine, is separated from the product, (^14 C)-tyrosine by ion exchange chromatography and the production of radiolabeled tyrosine is quantified. Test compounds are screened at a concentration of one micromolar to 1 nM. The ability of test compounds to inhibit tyrosyl phosphatase was expressed as the % inhibition at the highest concentration of test compound tested and/or as the IC50 in Table 1.
The test compounds were incubated in the presence of tyrosyl acid phosphatase and radiolabeled substrate {(^14 C)-phosphotyrosine, (NEN Dupont Custom Synthesis)} plus cold O-phospho-L-tyrosine{(10 uM) (Sigma Chemical Co.)} in a 0.05 mM sodium acetate buffer (pH 5.5) for 30 minutes at 37° C. […] The incubation mixture was passed over an ion-exchange column {(Ag 1-X8) (Bio-Rad Laboratories)} and washed with 2.5 ml of distilled, deionized water. The total column effluent containing the radiolabeled product (^14 C-tyrosine) was collected and quantified by liquid scintillation spectroscopy. The test compounds IC50 was calculated using a quantal (all-or-none) dose-response calculation.

[3] = target: T2, Human osteoclastic acid phosphatase (OAP) (Homo sapiens, UniProt P13686); experiment: Osteoclastic Acid Phosphatase (OAP) inhibition; assay type: biochemical; details: pH 5.0, room temperature, 20 minutes; for inhibition at 100 µM: read-out: OAPase % Inh@100 uM
T2 construct: purified from hairy cell leukemia spleen; from tissue; host or cells: human hairy cell leukemia spleen
T2 sequence (P13686 22-325): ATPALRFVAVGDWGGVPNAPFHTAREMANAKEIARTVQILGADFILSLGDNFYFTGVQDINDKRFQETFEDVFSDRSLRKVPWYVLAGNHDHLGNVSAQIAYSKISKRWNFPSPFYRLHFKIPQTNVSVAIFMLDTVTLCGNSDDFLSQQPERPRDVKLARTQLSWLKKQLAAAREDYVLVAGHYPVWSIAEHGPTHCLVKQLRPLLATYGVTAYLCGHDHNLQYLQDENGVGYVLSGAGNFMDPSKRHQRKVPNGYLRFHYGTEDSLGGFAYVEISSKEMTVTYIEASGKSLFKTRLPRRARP
Experimental: Inhibitors of the enzyme are involved with the stimulation of osteoblast cell proliferation in cell culture which is predictive of enhancement of bone mass and bone formation in vivo. Inhibitors of osteoclastic acid phosphatase prevent the resorptive action of osteoclasts and thereby prevent the degradation of bone mass associated with osteoporosis.
The enzyme was stored at -80° C. and was diluted in 50 mM, pH 5.0, sodium acetate buffer prior to use. Test compounds were dissolved in ethanol, DMSO, or water and tested at 100 μM. The assay measures the ability of the enzyme to dephosphorylate methylumbelliferone phosphate to the product, methylumbelliferone, which is fluorescent. The enzyme assay is performed in 50 mM, pH 5.0, sodium acetate buffer as follows: 5 μL of compound was added to 150 μL Of buffered enzyme solution. […] The reaction was performed at room temperature at pH=5.0 and terminated after 20 minutes by the addition of 50 μL of 4N NaOH. The reaction product, methylumbelliferone, was measured by fluorescence determination using a Dynatech Microfluor Fluorescence detector.

Compound | pIC50 [2] | pIC50 ([3]; read-out: OAPase IC50) | inhibition at 100 µM [3] | activity at 0.01 µM [1]
O=P(O)(O)C(CCCCc1ccccc1)c1ccccc1 (centres unmarked) [Cmpd 10] | 4.76 | 4.00 | – | 124%
O=P(O)(O)C(c1ccccc1)c1ccccc1F (centres unmarked) [Cmpd 12] | 4.39 | – | 12% | 124%
Cc1cccc(C(Cc2ccccc2)P(=O)(O)O)c1 (centres unmarked) [Cmpd 29] | 3.54 | – | 15% | 99%
Cc1cccc(C(Cc2ccc(Cl)cc2)P(=O)(O)O)c1 (centres unmarked) [Cmpd 30] | 4.09 | – | – | 97%
O=P(O)(O)C(Cc1ccc(Cl)cc1)c1ccccc1 (centres unmarked) [Cmpd 33] | 4.46 | – | 30% | 104%

Continued, in another order:

pIC50 [2] | pIC50 ([3]; read-out: OAPase IC50) | inhibition at 100 µM [3] | Compound | activity at 0.01 µM [1]
3.82 | – | 22% | Cc1ccc(C(c2ccccc2)P(=O)(O)O)cc1 (centres unmarked) [Cmpd 22] | 116%
4.05 | – | 15% | O=P(O)(O)C(Cc1ccccc1)c1ccccc1 (centres unmarked) [Cmpd 34] | 156%
